Laboratory results taken from US10550388B2, “Targeting pleiotrophin signaling to limit high-grade glioma invasion” (The Board of Trustees of the Leland Stanford Junior …, priority 2017, dated 2020).
Entries after “also recorded” stand apart in the source; their conditions may differ.

Columns and labels:
SU-DIPG-XIII FL cells [1] = test: Matrigel invasion assay (Boyden chamber) of DIPG cells; assay type: cell-based, human; details: DIPG cells expressing the shRNA; for DIPG invasion toward SVZ hNPC CM or the PTN complex: vs scrambled control; for baseline DIPG invasion toward unconditioned hNPC media: vs scrambled shRNA
Description: To test for chemoattraction and invasion toward neural precursor cell conditioned media or another candidate chemoattractant, a single-cell suspension of 100,000 DIPG cells in Tumor Stem Media (TSM) base (with B27 (−A) and heparin, without growth factors) was seeded in the top inserts of BioCoat growth factor reduced Matrigel invasion chambers (Corning, Bedford, Mass.), after rehydration of the inserts. Chemoattractant media was added to the bottom of the chamber. All conditions were plated in triplicate. After 72 hours, media was aspirated, and the non-invading cells on top of the layer of Matrigel were scrubbed off. The invading cells were fixed in 4% paraformaldehyde and then stained with 0.1% crystal violet in 10% methanol in distilled water. The number of invading cells was quantified by the intensity of the crystal violet dye on the invading side of the Matrigel. The dye was collected in 10% acetic acid, and absorbance was measured at 595 nm.
To test the ROCK or HSP90 inhibitors in the Matrigel invasion assay, the inhibitors were added to the suspension of glioma cells in TSM base (with B27 (−A) and heparin) seeded in the top inserts at the appropriate concentrations, and neural precursor cell conditioned media was plated in the bottom chambers. The rest of the procedure was performed as described above.

SU-DIPG-XIII FL cells [2] = test: CellTiter-Glo cell viability assay; assay type: cell-based, human; details: base media without growth factors, vs scrambled control or no shRNA
Description: To assess cell viability, 5,000 DIPG cells per well were seeded in base media or full growth media in a 96-well plate. Inhibitors were added at the appropriate concentrations. After 72 hours, CellTiter-Glo reagent 2.0 was added at a 1:1 ratio, and cells were lysed. Luminescence was measured after stabilization of signal for 10 minutes at room temperature.

PTPRZ1 = test: Knockdown of PTPRZ1 in DIPG cells (qPCR, Western blot); assay type: cell-based, human; details: vs scrambled shRNA control or no shRNA; for PTPRZ1 gene expression: qPCR
Description: Samples were run on Bio-Rad Mini-Protean TGX precast gels (Bio-Rad, Hercules, Calif.), and the protein was transferred onto polyvinylidene fluoride (PVDF) membranes. Membranes were blocked with 5% bovine serum albumin (BSA) in TBST for 1 hour, and incubated in primary antibodies diluted in 1% BSA/TBST overnight at 4° C. Primary antibodies used were: mouse anti-pleiotrophin (1:100; Santa Cruz Biotechnology, Santa Cruz, Calif.), goat anti-SPARC (1:100; R&D Systems, Minneapolis, Minn.), goat anti-SPARCL1 ([…]; R&D Systems, Minneapolis, Minn.), rabbit anti-HSP90B (GeneTex, Irvine, Calif.), rabbit anti-GRP78 (1:500, Abcam, Cambridge, Mass.), rabbit anti-PTPRZ (Thermo Fisher, Waltham, Mass.), and rabbit beta-actin (1:2000; Cell Signaling, Danvers, Mass.). Secondary antibodies conjugated to horseradish peroxidase (HRP) were added for 1 hour at room temperature. Secondary antibodies used were: goat anti-rabbit IgG-HRP (Cell Signaling, Danvers, Mass.), horse anti-mouse IgG-HRP (Cell Signaling, Danvers, Mass.), and donkey anti-goat IgG-HRP (Santa Cruz Biotechnology, Santa Cruz, Calif.). Proteins were visualized using Clarity Western ECL Substrate (Bio-Rad, Hercules, Calif.).
Cells or tissue were lysed and homogenized in TRIzol Reagent (Life Technologies, Carlsbad, Calif.) and RNA was extracted according to reagent protocol. RNA was treated with dsDNase, and cDNA was synthesized using Thermo Scientific Maxima First Strand cDNA Synthesis Kit for RT-qPCR with dsDNase (Thermo Fisher Scientific K1671). RT-PCR was performed on Eppendorf Mastercycler Realplex2 using Universal SYBR Green Supermix (BioRad, Hercules, Calif.). Differential expression was determined using the deltaCt method. Primers used were as follows: […]
For lentiviral infection, DIPG cells or neural precursor cells were exposed to shRNA-expressing lentivirus for 16 hours. Puromycin was added 48 hours after infection to select for virally infected cells. After removal of puromycin, shRNA-treated neural precursor cells were grown for 7 days (with addition of media on day 3-4) for generation of conditioned media. […]

SU-DIPG-XIII FL cells [3] = test: Orthotopic xenograft of PTPRZ1 knockdown DIPG cells; assay type: in vivo, NSG mice; details: knockdown cells xenografted to the pons, vs scrambled shRNA control cells; for DIPG cells invading the SVZ: 8 weeks following xenograft
Description: (§1) NSG mice at age P34-36 were orthotopically xenografted with SU-DIPG-XIII frontal lobe CMV-GFP-luciferase cells, in a similar procedure to as previously described (Grasso et al., supra; Venkatesh et al. (2015) Cell 161, 803-816). Briefly, a single-cell suspension of SU-DIPG-XIII frontal lobe CMV-GFP-luciferase cells at passage 16-19 was prepared in sterile HBSS immediately before beginning the xenograft procedure. 600,000 cells in 3 μL were stereotactically injected into the pons of the left hemisphere of NSG mice, through a 31-gauge burr hole. Stereotactic coordinates used were: 1 mm lateral to midline, 0.8 mm posterior to lambda suture, and 5 mm deep. Cells were injected at a rate of 0.4 μL/min using a digital pump and a 31-gauge Hamilton syringe. After infusion of cells, the syringe needle was kept in place for 2 minutes, and then withdrawn manually at a rate of 0.875 mm/min to minimize the backflow of cells.
(§2) Mice were imaged using an IVIS Spectrum to ensure tumor engraftment and monitor tumor size. Mice were anesthetized under 1% isoflurane, intraperitoneally injected with luciferin (15 mg/kg), and imaged for bioluminescence every minute until the peak total flux was reached.
For lentiviral infection, DIPG cells or neural precursor cells were exposed to shRNA-expressing lentivirus for 16 hours. Puromycin was added 48 hours after infection to select for virally infected cells. After removal of puromycin, shRNA-treated neural precursor cells were grown for 7 days (with addition of media on day 3-4) for generation of conditioned media. After removal of puromycin, shRNA-treated DIPG cells were grown for at least one passage before experimental use.

RhoA = test: G-LISA RhoA activation assay in DIPG cells; assay type: cell-based, human; details: DIPG cells expressing the shRNA exposed to SVZ hNPC CM or the PTN complex; vs scrambled shRNA
Description: (§3) SU-DIPG-XIII frontal lobe cells were starved in TSM base (without B27 (−A) supplement, heparin, or growth factors) for 48 hours prior to treatment. After treatment, cells were lysed in the RhoA activation assay kit cell lysis buffer (Cytoskeleton, Denver, Colo.). Lysates were incubated on ice for 1 minute, clarified by centrifugation at 10,000×g, 4° C. for 1 minute, and the supernatants were snap-frozen and stored immediately at −80° C. Protein concentrations were measured by the BCA protein assay (Thermo Scientific, Waltham, Mass.), and samples were diluted to 0.5 mg/mL by the addition of cell lysis buffer.
RhoA activation assays were performed using the G-LISA RhoA absorbance-based activation assay (Cytoskeleton, Denver, Colo.). Lysate samples were incubated in a 96-well plate with pre-linked Rho GTP-binding protein for 30 minutes at 4° C. shaking at 400 rpm. Wells were incubated in anti-RhoA primary antibody (1:250) at room temperature for 45 minutes shaking at 400 rpm. Secondary HRP-labeled antibody (1:62.5) was added at room temperature for 45 minutes shaking at 400 rpm. Results were visualized by addition of HRP detection reagents for 12 minutes at 37° C., and the absorbance was read at 490 nm. All assays were performed in triplicate.

ROCK = test: Rho-associated kinase (ROCK) activity assay in DIPG cells; assay type: cell-based, human; details: DIPG cells expressing the shRNA exposed to SVZ hNPC CM or the PTN complex; vs scrambled shRNA
Description: as §3
ROCK activation assays were performed using the Rho-associated kinase (ROCK) activity assay (Millipore, Bedford, Mass.). Cell lysates were incubated in wells of a myosin phosphatase target subunit 1 (MYPT1) pre-coated 96-well plate, for 30 minutes at 30° C. with moderate shaking. Wells were incubated in anti-phospho-MYPT1(Thr696) primary antibody (1:1000) for 1 hour with moderate shaking. Goat anti-rabbit IgG HRP secondary antibody (1:2000) was added for 1 hour with moderate shaking. Results were visualized with TMB/E substrate, incubating in the dark for 10 minutes, and absorbance was read at 450 nm. All assays were performed in triplicate.

SU-DIPG-XIII FL cells [4] = test: shRNA-expressing lentivirus injected into the SVZ of orthotopically xenografted mice; assay type: in vivo, NSG mice; details: vs scrambled shRNA control; for DIPG cells invading the SVZ: 16 weeks following pontine xenograft
Description: as §1
(§4) Mice used for shRNA lentivirus studies received shRNA-expressing lentivirus in the SVZ at P27-29 and DIPG cells in the left pons at P34-36. For lentiviral injections, 2 μL of shRNA-expressing lentivirus were stereotactically injected into the SVZ. Stereotactic coordinates used were: 1.3 mm lateral to midline, 0.1 mm posterior to bregma suture, and 2 mm deep. Virus was injected and the needle was withdrawn according to the same procedure as described above.
as §2
For quantification of DIPG invasion of the SVZ after knock down of targets in the SVZ, 5 NSG mice per group were injected with shRNA-expressing lentivirus in bilateral SVZs and orthotopically xenografted with SU-DIPG-XIII FL in the left pons. Mice were perfused for analysis 16 weeks after xenograft. A 1:6 series of coronal slices from each mouse brain was immunostained and imaged, and the number of GFP^+ HNA^+ glioma cells within 200 μm of the lateral ventricles in all slices containing lateral ventricles was manually counted.
For quantification of neural stem/precursor cells in the SVZ after knock down of PTN in the SVZ, a 1:6 series of coronal slices from each mouse was immunostained and imaged, and the number of Sox2^+ neural stem/precursor cells in a 20×Z-stack was manually counted. The density of Sox2^+ cells was calculated as cells/mm^3.

HSP90B = test: Knockdown of HSP90B expression in the mouse SVZ; assay type: in vivo; details: lentivirus injected into the SVZ; vs scrambled shRNA control
Description: as §4
Mice were intraperitoneally injected with Avertin (tribromoethanol) for anesthesia, and then transcardially perfused with 20 mL of ice-cold PBS. Brains were dissected out and fixed in 4% paraformaldehyde in PBS overnight at 4° C., and were then transferred to 30% sucrose in PBS for cryoprotection. Brains were embedded in Tissue-Tek O.C.T. (Sakura, Torrance, Calif.). Brains from mice older than P10 were sliced into 40 μm coronal or sagittal sections using a sliding microtome (Microm HM450; Thermo Scientific, Waltham, Mass.). Brains from mice age P0 to P10 were sliced into 25 μm coronal sections using a cryostat (Leica Biosystems CM3050 S; 1058 Wetzlar, Germany). For immunohistochemistry, a 1 in 6 series of 25 μm or 40 μm sections was incubated in blocking solution (3% normal donkey serum, 0.3% Triton X-100 in TBS) at room temperature for 1 hour. […]

[5] = listed as shRNA lentivirus targeting PTPRZ1
[6] = listed as shRNA-expressing lentivirus targeting the HSP90B1 gene

PTPRZ1 shRNA: lentivirus-expressed shRNA against human PTPRZ1, Sigma TRCN0000356374, SEQ ID NO: 13 (CCGGATACCTAAGTCTTCGTTAATACTCGAGTATTAACGAAGACTTAGGTATTTTTTG)
DIPG invasion toward SVZ hNPC CM or the PTN complex (SU-DIPG-XIII FL cells [1]): partial abrogation of invasion | DIPG invasion toward SVZ hNPC CM or the PTN complex (SU-DIPG-XIII FL cells [1]; [5]): partially abrogates DIPG invasion | baseline DIPG invasion toward unconditioned hNPC media (SU-DIPG-XIII FL cells [1]): substantially decreases baseline invasion | baseline DIPG invasion toward unconditioned hNPC media (SU-DIPG-XIII FL cells [1]; [5]): decrease in baseline DIPG invasion | cell viability of DIPG cells expressing the shRNA (SU-DIPG-XIII FL cells [2]): mildly decreases cell viability | cell viability of DIPG cells expressing the shRNA (SU-DIPG-XIII FL cells [2]; [5]): mild decrease in cell viability | PTPRZ protein levels (PTPRZ1; Western blot): effective knock down | PTPRZ1 gene expression (PTPRZ1): Robust shRNA-mediated knockdown of PTPRZ1 expression | PTPRZ1 gene expression (PTPRZ1; [5]): effective knock down of PTPRZ1 gene expression | DIPG cells invading the SVZ (SU-DIPG-XIII FL cells [3]): significantly fewer cells expressing PTPRZ1 shRNA reached the SVZ | DIPG cells invading the SVZ (SU-DIPG-XIII FL cells [3]; [5]): fewer DIPG cells with knockdown of PTPRZ1 invaded the SVZ | decrease of total tumor size (engraftment), bioluminescent signal on initial IVIS imaging (SU-DIPG-XIII FL cells [3]): 10 fold | tumor growth over time (SU-DIPG-XIII FL cells [3]): rate of growth was similar | RhoA activation (RhoA): abrogation of RhoA and ROCK activation; also recorded: decreased activation of RhoA and ROCK | ROCK activation (ROCK): abrogation of RhoA and ROCK activation; also recorded: decreased activation of RhoA and ROCK

sh-HSP90B1: lentivirus-expressed shRNA against mouse HSP90B1, Sigma TRCN0000071925, SEQ ID NO: 12 (CCGGGCTATTCAGTTGGATGGGTTACTCGAGTAACCCATCCAACTGAATAGCTTTTTG)
DIPG cells invading the SVZ (SU-DIPG-XIII FL cells [4]): fewer orthotopically xenografted GFP^+ HNA^+ SU-DIPG-XIII FL cells invaded the SVZ | DIPG cells invading the SVZ (SU-DIPG-XIII FL cells [4]; [6]): fewer DIPG cells invading the SVZ | tumor engraftment (bioluminescent flux) (SU-DIPG-XIII FL cells [4]; listed as shRNA lentivirus targeting HSP90B1): equivalent | tumor engraftment (bioluminescent flux) (SU-DIPG-XIII FL cells [4]; [6]): no effect on initial tumor engraftment | HSP90B expression in the SVZ (HSP90B): low HSP90B expression after knockdown
